Where “and” joins values, the source holds several entries; their conditions need not be identical. Equal entries are not always repeated. Calls of active or inactive are those of the source. How the calls were made is not given here.
Test system: rodent lifetime carcinogenesis bioassay, tumor incidence TD50
Experiment: chronic cancer bioassays in animals – CPDB, compiled studies (AID 1745844)

Work on `O=P(OCCCl)(OCCCl)OCCCl` yielded a TD50 (mouse, strain B6C3F1, females, by gavage, site: Harderian gland, lesion: adenoma + carcinoma, dosed 104 weeks, study length 104 weeks) of 1390 mg/kg/day, a TD50 (mouse, strain B6C3F1, females, by gavage, site: any site (literature study), lesion: several types, types named in the paper, dosed 104 weeks, study length 104 weeks) of 610 mg/kg/day and a TD50 (mouse, strain B6C3F1, females, by gavage, site: liver, lesion: hepatocellular adenoma + hepatocellular carcinoma + neoplastic nodule, dosed 104 weeks, study length 104 weeks) of 2870 mg/kg/day. It also gave a TD50 (mouse, strain B6C3F1, females, by gavage, site: lung, lesion: alveolar/bronchiolar adenoma + alveolar/bronchiolar carcinoma, dosed 104 weeks, study length 104 weeks) of 4380 mg/kg/day, a TD50 (mouse, strain B6C3F1, females, by gavage, site: mammary gland, lesion: adenocarcinoma, dosed 104 weeks, study length 104 weeks) of 3050 mg/kg/day and a TD50 (mouse, strain B6C3F1, females, by gavage, site: uterus, lesion: endometrial stromal polyp, dosed 104 weeks, study length 104 weeks) of 2420 mg/kg/day. For the same compound, the TD50 (mouse, strain B6C3F1, males, by gavage, site: any site (literature study), lesion: several types, types named in the paper, dosed 104 weeks, study length 104 weeks) was 807 mg/kg/day, the TD50 (mouse, strain B6C3F1, males, by gavage, site: kidney, lesion: tubule adenoma + tubule carcinoma, dosed 104 weeks, study length 104 weeks) was 3510 mg/kg/day and 6810 mg/kg/day and the TD50 (mouse, strain B6C3F1, males, by gavage, site: kidney, lesion: tubule carcinoma, dosed 104 weeks, study length 104 weeks) was 8450 mg/kg/day. For the same compound, the TD50 (mouse, strain B6C3F1, males, by gavage, site: liver, lesion: hepatocellular adenoma + hepatocellular carcinoma + neoplastic nodule, dosed 104 weeks, study length 104 weeks) was 569 mg/kg/day, the TD50 (mouse, strain B6C3F1, males, by gavage, site: lung, lesion: alveolar/bronchiolar adenoma + alveolar/bronchiolar carcinoma, dosed 104 weeks, study length 104 weeks) was 61700 mg/kg/day and the TD50 (mouse, strain Slc:ddY, females, in feed, site: all sites, lesion: leukemia, dosed 78 weeks, study length 78 weeks) was 4790 mg/kg/day. It also gave a TD50 (mouse, strain Slc:ddY, females, in feed, site: any site (literature study), lesion: several types, types named in the paper, dosed 78 weeks, study length 78 weeks) of 880 mg/kg/day, a TD50 (mouse, strain Slc:ddY, females, in feed, site: forestomach, lesion: several types, types named in the paper, dosed 78 weeks, study length 78 weeks) of 5500 mg/kg/day and a TD50 (mouse, strain Slc:ddY, females, in feed, site: forestomach, lesion: squamous-cell carcinoma, dosed 78 weeks, study length 78 weeks) of 8970 mg/kg/day. For the same compound, the TD50 (mouse, strain Slc:ddY, females, in feed, site: liver, lesion: hepatocellular adenoma, dosed 78 weeks, study length 78 weeks) was 23000 mg/kg/day, the TD50 (mouse, strain Slc:ddY, males, in feed, site: any site (literature study), lesion: several types, types named in the paper, dosed 78 weeks, study length 78 weeks) was 185 mg/kg/day and the TD50 (mouse, strain Slc:ddY, males, in feed, site: kidney, lesion: renal-cell carcinoma, dosed 78 weeks, study length 78 weeks) was 844 mg/kg/day. For the same compound, the TD50 (mouse, strain Slc:ddY, males, in feed, site: kidney, lesion: several types, types named in the paper, dosed 78 weeks, study length 78 weeks) was 539 mg/kg/day, the TD50 (mouse, strain Slc:ddY, males, in feed, site: liver, lesion: hepatocellular carcinoma, dosed 78 weeks, study length 78 weeks) was 28800 mg/kg/day and the TD50 (mouse, strain Slc:ddY, males, in feed, site: liver, lesion: several types, types named in the paper, dosed 78 weeks, study length 78 weeks) was 1690 mg/kg/day. The TD50 (rat, strain Fischer 344, females, by gavage, site: any site (literature study), lesion: several types, types named in the paper, dosed 104 weeks, study length 104 weeks) was 39.9 mg/kg/day, the TD50 (rat, strain Fischer 344, females, by gavage, site: kidney, lesion: tubule adenoma, dosed 104 weeks, study length 104 weeks) was 187 mg/kg/day and the TD50 (rat, strain Fischer 344, females, by gavage, site: multiple organs, lesion: mononuclear-cell leukemia, dosed 104 weeks, study length 104 weeks) was 90.2 mg/kg/day. It also gave a TD50 (rat, strain Fischer 344, females, by gavage, site: thyroid gland, lesion: follicular-cell adenoma + follicular-cell carcinoma, dosed 104 weeks, study length 104 weeks) of 203 mg/kg/day, a TD50 (rat, strain Fischer 344, females, by gavage, site: thyroid gland, lesion: follicular-cell carcinoma, dosed 104 weeks, study length 104 weeks) of 280 mg/kg/day and a TD50 (rat, strain Fischer 344, females, by gavage, site: uterus, lesion: endometrial stromal sarcoma, dosed 104 weeks, study length 104 weeks) of 589 mg/kg/day. It also gave a TD50 (rat, strain Fischer 344, males, by gavage, site: adrenal medulla, lesion: pheochromocytoma benign, bilateral + pheochromocytoma, benign, dosed 104 weeks, study length 104 weeks) of 49.5 mg/kg/day, a TD50 (rat, strain Fischer 344, males, by gavage, site: any site (literature study), lesion: several types, types named in the paper, dosed 104 weeks, study length 104 weeks) of 56.8 mg/kg/day and a TD50 (rat, strain Fischer 344, males, by gavage, site: brain + cerebellum, meninges, lesion: granular-cell tumor, benign, dosed 104 weeks, study length 104 weeks) of 705 mg/kg/day. The TD50 (rat, strain Fischer 344, males, by gavage, site: kidney, lesion: tubule adenoma + tubule carcinoma, dosed 104 weeks, study length 104 weeks) was 56.4 mg/kg/day, the TD50 (rat, strain Fischer 344, males, by gavage, site: kidney, lesion: tubule adenoma, dosed 104 weeks, study length 104 weeks) was 56.9 mg/kg/day and the TD50 (rat, strain Fischer 344, males, by gavage, site: kidney, lesion: tubule carcinoma, dosed 104 weeks, study length 104 weeks) was 8400 mg/kg/day. It also gave a TD50 (rat, strain Fischer 344, males, by gavage, site: liver, lesion: hepatocellular adenoma + hepatocellular carcinoma + neoplastic nodule, dosed 104 weeks, study length 104 weeks) of 633 mg/kg/day, a TD50 (rat, strain Fischer 344, males, by gavage, site: multiple organs, lesion: mononuclear-cell leukemia, dosed 104 weeks, study length 104 weeks) of 107 mg/kg/day and a TD50 (rat, strain Fischer 344, males, by gavage, site: subcutaneous tissue, lesion: fibroma, dosed 104 weeks, study length 104 weeks) of 246 mg/kg/day. It also gave a TD50 (rat, strain Fischer 344, males, by gavage, site: thyroid gland, lesion: follicular-cell adenoma + follicular-cell carcinoma, dosed 104 weeks, study length 104 weeks) of 338 mg/kg/day.
With `Nc1ccc(Cc2ccc(N)cc2)cc1` the TD50 (mouse, strain B6C3F1, females, in drinking water, site: all sites + liver + thyroid gland, lesion: malignant lymphoma, histiocytic type + malignant lymphoma, mixed type + malignant lymphoma, undifferentiated type + malignant, dosed 103 weeks, study length 104 weeks) was 32.6 mg/kg/day, the TD50 (mouse, strain B6C3F1, females, in drinking water, site: all sites, lesion: malignant lymphoma, histiocytic type + malignant lymphoma, mixed type + malignant lymphoma, undifferentiated type + malignant, dosed 103 weeks, study length 104 weeks) was 64.7 mg/kg/day and the TD50 (mouse, strain B6C3F1, females, in drinking water, site: any site (literature study), lesion: several types, types named in the paper, dosed 103 weeks, study length 104 weeks) was 52.1 mg/kg/day. It also gave a TD50 (mouse, strain B6C3F1, females, in drinking water, site: liver, lesion: hepatocellular adenoma + hepatocellular carcinoma + neoplastic nodule, dosed 103 weeks, study length 104 weeks) of 59.3 mg/kg/day, a TD50 (mouse, strain B6C3F1, females, in drinking water, site: liver, lesion: hepatocellular adenoma + hepatocellular carcinoma, dosed 103 weeks, study length 104 weeks) of 59.3 mg/kg/day and a TD50 (mouse, strain B6C3F1, females, in drinking water, site: liver, lesion: hepatocellular adenoma, dosed 103 weeks, study length 104 weeks) of 135 mg/kg/day. For the same compound, the TD50 (mouse, strain B6C3F1, females, in drinking water, site: liver, lesion: hepatocellular carcinoma, dosed 103 weeks, study length 104 weeks) was 137 mg/kg/day, the TD50 (mouse, strain B6C3F1, females, in drinking water, site: lung, lesion: alveolar/bronchiolar adenoma + alveolar/bronchiolar carcinoma, dosed 103 weeks, study length 104 weeks) was 268 mg/kg/day and the TD50 (mouse, strain B6C3F1, females, in drinking water, site: lung, lesion: alveolar/bronchiolar adenoma, dosed 103 weeks, study length 104 weeks) was 327 mg/kg/day. For the same compound, the TD50 (mouse, strain B6C3F1, females, in drinking water, site: thyroid gland, lesion: follicular-cell adenoma + follicular-cell carcinoma, dosed 103 weeks, study length 104 weeks) was 128 mg/kg/day, the TD50 (mouse, strain B6C3F1, females, in drinking water, site: thyroid gland, lesion: follicular-cell adenoma, dosed 103 weeks, study length 104 weeks) was 150 mg/kg/day and the TD50 (mouse, strain B6C3F1, males, in drinking water, site: adrenal gland + liver + thyroid gland, lesion: pheochromocytoma + hepatocellular carcinoma + follicular-cell adenoma, dosed 103 weeks, study length 104 weeks) was 28.7 mg/kg/day. The TD50 (mouse, strain B6C3F1, males, in drinking water, site: adrenal gland, lesion: pheochromocytoma, dosed 103 weeks, study length 104 weeks) was 70 mg/kg/day, the TD50 (mouse, strain B6C3F1, males, in drinking water, site: any site (literature study), lesion: several types, types named in the paper, dosed 103 weeks, study length 104 weeks) was 47.4 mg/kg/day and the TD50 (mouse, strain B6C3F1, males, in drinking water, site: liver, lesion: hepatocellular adenoma + hepatocellular carcinoma + neoplastic nodule, dosed 103 weeks, study length 104 weeks) was 17 mg/kg/day. For the same compound, the TD50 (mouse, strain B6C3F1, males, in drinking water, site: liver, lesion: hepatocellular adenoma + hepatocellular carcinoma, dosed 103 weeks, study length 104 weeks) was 17 mg/kg/day, the TD50 (mouse, strain B6C3F1, males, in drinking water, site: liver, lesion: hepatocellular carcinoma, dosed 103 weeks, study length 104 weeks) was 22.3 mg/kg/day and the TD50 (mouse, strain B6C3F1, males, in drinking water, site: thyroid gland, lesion: follicular-cell adenoma, dosed 103 weeks, study length 104 weeks) was 88.4 mg/kg/day. It also gave a TD50 (rat, strain Fischer 344, females, in drinking water, site: any site (literature study), lesion: several types, types named in the paper, dosed 103 weeks, study length 105 weeks) of 277 mg/kg/day, a TD50 (rat, strain Fischer 344, females, in drinking water, site: liver, lesion: hepatocellular adenoma + hepatocellular carcinoma + neoplastic nodule, dosed 103 weeks, study length 105 weeks) of 118 mg/kg/day and a TD50 (rat, strain Fischer 344, females, in drinking water, site: thyroid gland, lesion: c-cell adenoma + c-cell carcinoma, dosed 103 weeks, study length 105 weeks) of 70 mg/kg/day. The TD50 (rat, strain Fischer 344, females, in drinking water, site: thyroid gland, lesion: c-cell adenoma + follicular-cell adenoma, dosed 103 weeks, study length 105 weeks) was 22 mg/kg/day, the TD50 (rat, strain Fischer 344, females, in drinking water, site: thyroid gland, lesion: c-cell adenoma, dosed 103 weeks, study length 105 weeks) was 73.7 mg/kg/day and the TD50 (rat, strain Fischer 344, females, in drinking water, site: thyroid gland, lesion: follicular-cell adenoma + follicular-cell carcinoma, dosed 103 weeks, study length 105 weeks) was 27.2 mg/kg/day. The TD50 (rat, strain Fischer 344, females, in drinking water, site: thyroid gland, lesion: follicular-cell adenoma, dosed 103 weeks, study length 105 weeks) was 33.5 mg/kg/day, the TD50 (rat, strain Fischer 344, males, in drinking water, site: liver + thyroid gland, lesion: neoplastic nodule + follicular-cell carcinoma, dosed 103 weeks, study length 105 weeks) was 12.5 mg/kg/day and the TD50 (rat, strain Fischer 344, males, in drinking water, site: liver, lesion: hepatocellular adenoma + hepatocellular carcinoma + neoplastic nodule, dosed 103 weeks, study length 105 weeks) was 14.1 mg/kg/day. For the same compound, the TD50 (rat, strain Fischer 344, males, in drinking water, site: liver, lesion: neoplastic nodule, dosed 103 weeks, study length 105 weeks) was 14.3 mg/kg/day, the TD50 (rat, strain Fischer 344, males, in drinking water, site: thyroid gland, lesion: follicular-cell adenoma + follicular-cell carcinoma, dosed 103 weeks, study length 105 weeks) was 49.5 mg/kg/day and the TD50 (rat, strain Fischer 344, males, in drinking water, site: thyroid gland, lesion: follicular-cell carcinoma, dosed 103 weeks, study length 105 weeks) was 85.4 mg/kg/day.
With `O=S(=O)([O-])[O-].[Ni+2]` the carcinogen call (mouse, strain B6C3F1, females, inhaled, site: any site (literature study), lesion: several types, types named in the paper, dosed 104 weeks, study length 104 weeks) was “negative (inactive)”, the TD50 (mouse, strain B6C3F1, females, inhaled, site: lung, lesion: alveolar/bronchiolar adenoma + alveolar/bronchiolar carcinoma, dosed 104 weeks, study length 104 weeks) was 3.1 mg/kg/day and the carcinogen call (mouse, strain B6C3F1, males, inhaled, site: any site (literature study), lesion: several types, types named in the paper, dosed 104 weeks, study length 105 weeks) was “negative (inactive)”. For the same compound, the carcinogen call (rat, strain Fischer 344, females, inhaled, site: any site (literature study), lesion: several types, types named in the paper, dosed 104 weeks, study length 104 weeks) was “negative (inactive)”, the carcinogen call (rat, strain Fischer 344, males, inhaled, site: any site (literature study), lesion: several types, types named in the paper, dosed 104 weeks, study length 105 weeks) was “negative (inactive)” and the TD50 (rat, strain Fischer 344, males, inhaled, site: liver, lesion: hepatocellular adenoma + hepatoblastoma + hepatocellular carcinoma, dosed 104 weeks, study length 105 weeks) was 2.08 mg/kg/day.

— PubChem BioAssay AID1745844 (Carcinogenic Potency Database (CPDB), 2022)
